Publication PMC3684613 (PLoS ONE, 2013)
Read-outs that look alike come from different tables or passages of the source.

Legend:
P. falciparum 3D7 [1] = test system: P. falciparum 3D7; design: method as in ChEMBL-NTD; settings: ref ChEMBL-NTD, cited from earlier work
P. falciparum 3D7 [2] = experiment: DAPI stain fluorescent high content imaging assay, P. falciparum 3D7 (confirmatory screen, Avery); settings: Plasmodium falciparum; for EC50: 3D7, read-out: EC50_nM; for inhibition of growth at 2 µM: 3D7, read-out: percent_inh @ 2 uM; for inhibition of growth at 5 µM: 3D7, read-out: percent_inh @ 5 uM
[3] = values follow the order of the source (GNF; GSK; StJude)
[4] = original screening data, source (GSK, GNF, StJude), several values separated by ';' in order of sources

| SMILES | EC50 (P. falciparum 3D7 [2]) [nM] | inhibition of growth at 5 µM (P. falciparum 3D7 [2]) [%] | other results |
| --- | --- | --- | --- |
| O=C(Nc1ccc(-c2nc3cc(NC(=O)c4ccc(Cl)cc4)ccc3[nH]2)cc1)c1ccc(Cl)cc1 [MMV006962] | – | – | EC50 (P. falciparum 3D7 [1]; [3]): 993 nM; inhibition at 1.25 µM (P. falciparum 3D7 [2]; 3D7, read-out: % inh. At 1.25 uM): 48% |
| CCOc1ccc2nc(C)cc(Nc3ccc(N(C)C)cc3)c2c1 [MMV007020] | 4000 | – | EC50 (P. falciparum 3D7 [1]; [3]): 344 nM; inhibition of growth at 2 µM (P. falciparum 3D7 [2]): 94% |
| Cc1ccc2c(C)nc(Nc3nc(C)cc(-c4ccccc4)n3)nc2c1 [MMV007041] | 4000 | – | EC50 (P. falciparum 3D7 [1]; [3]): 975 nM; inhibition of growth at 2 µM (P. falciparum 3D7 [2]): 73% |
| CCOc1ccc(CN2CCN(CC(O)COc3ccc(OCC(O)CN4CCN(Cc5ccc(OCC)cc5)CC4)cc3)CC2)cc1 (centres unmarked) [MMV007092] | 1200 | 97 | EC50 (P. falciparum 3D7 [1]; [3]): 1370 nM |
| c1ccc(C2=Nc3ccccc3N=C(c3ccccc3)c3ccccc32)cc1 [MMV007113] | 662 | 99 | EC50 (P. falciparum 3D7 [1]; [3]): 678 nM |
| CCOC(=O)c1cnc2ccc(CC)cc2c1O [MMV007116] | 351 | – | EC50 (P. falciparum 3D7 [1]; source GNF (GNF-Pf id)): 716 nM |
| OC1=C2C(=Nc3ccccc3SC2c2ccc(Br)cc2)c2ccccc21 (centres unmarked) [MMV007127] | 567 | 97 | EC50 (P. falciparum 3D7 [1]; source GNF (GNF-Pf ids)): 337 nM |
| Cc1ccc(N2C3c4ccccc4N(S(=O)(=O)c4ccc(C)cc4)C2c2ccccc2N3S(=O)(=O)c2ccc(C)cc2)cc1 [MMV007160] | 24.8 | 97 | EC50 (P. falciparum 3D7 [1]; source GNF (GNF-Pf id)): 720 nM |
| Cc1cc(Nc2ccc(OCc3ccccc3)cc2)nc2cc(O)ccc12 [MMV007181] | 684 | 96 | EC50 (P. falciparum 3D7 [1]; [3]): 73.6 nM |
| COc1ccc(OC)c(C2C3=C(CC(C)(C)CC3=O)N(c3ccc(Cl)c(Cl)c3)C3=C2C(=O)CC(C)(C)C3)c1 [MMV007208] | 912 | 90 | EC50 (P. falciparum 3D7 [1]; source GNF (GNF-Pf ids)): 430 nM |
| Cc1cccc(N2C(=O)C3C(C2=O)C2(c4ccccc4)C(=O)C3(c3ccccc3)C(c3ccc4c(c3)OCO4)=C2c2ccc3c(c2)OCO3)c1 (centres unmarked) [MMV007228] | 304 | 94 | EC50 (P. falciparum 3D7 [1]; [3]): 1070 nM |
| COc1cc(-c2nc(-c3ccc(Sc4ccccc4)cc3)c(-c3ccccc3)[nH]2)cc(OC)c1O [MMV007273] | 350 | 97 | EC50 (P. falciparum 3D7 [1]; source GNF (GNF-Pf ids)): 1280 nM |
| Cc1ccc(F)cc1NC(=O)c1cc(Cl)ccc1Nc1ccccc1 [MMV007275] | 539 | 99 | EC50 (P. falciparum 3D7 [1]; source GNF (GNF-Pf ids)): 191 nM |
| CCOc1ccc(Nc2ccnc3cc(Cl)ccc23)cc1 [MMV007285] | 4000 | – | EC50 (P. falciparum 3D7 [1]; [3]): 956 nM; inhibition of growth at 2 µM (P. falciparum 3D7 [2]): 94% |
| Clc1ccc2c(N3CCCC3)ccnc2c1 [MMV007363] | 944 | 97 | EC50 (P. falciparum 3D7 [1]; [4]): 283 nM |
| CCc1ccc(Nc2cc(C)nc3nc(C)nn23)cc1 [MMV007374] | 4000 | – | EC50 (P. falciparum 3D7 [1]; [4]): 574 nM; inhibition of growth at 2 µM (P. falciparum 3D7 [2]): 81% |
| COc1ccc(-c2nc3cc(Cc4ccc5[nH]c(-c6ccc(OC)cc6)nc5c4)ccc3[nH]2)cc1 [MMV007384] | 176 | 98 | EC50 (P. falciparum 3D7 [1]; source GNF (GNF-Pf id)): 234 nM |
| Cc1ccccc1OCCSc1nc2ccc(NC(=O)c3cccs3)cc2s1 [MMV007396] | 697 | 96 | EC50 (P. falciparum 3D7 [1]; source GNF (GNF-Pf ids)): 497 nM |
| O=C(NCc1ccco1)C1CCN(S(=O)(=O)c2ccc(Br)cc2)CC1 [MMV007430] | 939 | 93 | EC50 (P. falciparum 3D7 [1]; [4]): 362 nM |
| COc1cc2c3cc1Oc1c(OC)c(OC)cc4c1C(Cc1ccc(O)c(c1)Oc1ccc(cc1)CC3N(C)CC2)N(C)CC4 (centres unmarked) [MMV007474] | 1270 | 96 | EC50 (P. falciparum 3D7 [1]; [3]): 997 nM |
| COc1ccc(CCNC(=O)c2cc(S(=O)(=O)N3CC(C)CC(C)C3)ccc2Sc2ccc(F)cc2)cc1OC (centres unmarked) [MMV007557] | 632 | 97 | EC50 (P. falciparum 3D7 [1]; source GNF (GNF-Pf ids)): 1050 nM |
| Cc1ccc(Cn2c(N3CCC(C(=O)NCc4cccs4)CC3)nc3ccccc32)cc1 [MMV007564] | 947 | 73 | EC50 (P. falciparum 3D7 [1]; source GNF): 529 nM; EC50 (P. falciparum 3D7 [1]; source GSK): 748 nM |
| Cc1ccc(CSCc2ccc(C(=O)NC3CC3)o2)cc1 [MMV007571] | 635 | 97 | EC50 (P. falciparum 3D7 [1]; source GNF): 418 nM |
| O=C(Nc1ccc(C23CC4CC(CC(c5ccccc5)(C4)C2)C3)cc1)c1cccs1 [MMV007574] | 826 | 96 | EC50 (P. falciparum 3D7 [1]; source GNF (GNF-Pf ids)): 645 nM |

| SMILES | EC50 (P. falciparum 3D7 [2]) [nM] | inhibition of growth at 5 µM (P. falciparum 3D7 [2]) [%] | other results |
| --- | --- | --- | --- |
| Cc1ccccc1OCCSc1nc2ccc(NC(=O)c3ccccc3)cc2s1 [MMV007577] | 1120 | 93 | EC50 (P. falciparum 3D7 [1]; source GNF (GNF-Pf ids)): 9760 nM |
| COc1ccc(C(=O)C(CCC(CNC(C)(C)C)C(=O)c2ccc(OC)cc2)CNC(C)(C)C)cc1 (centres unmarked) [MMV007591] | – | 85 | EC50 (P. falciparum 3D7 [1]; [3]): 1120 nM |
| CC(=O)NCCc1nc2ccccc2n1Cc1ccc(C(C)C)cc1 [MMV007617] | 1790 | 97 | EC50 (P. falciparum 3D7 [1]; source GNF): 764 nM |
| Cc1ccc(C)c(-c2csc(Nc3ccc(C)c(C)c3)n2)c1 [MMV007654] | – | 94 | EC50 (P. falciparum 3D7 [1]; [3]): 493 nM |
| CCCCCCOC(=O)C1=C(C)NC(=O)NC1c1ccccc1F (centres unmarked) [MMV007686] | 106 | 95 | EC50 (P. falciparum 3D7 [1]; source GNF (GNF-Pf id)): 6760 nM |
| COc1ccc(C(C)=O)cc1N1C(=O)C2C(C1=O)C1(c3ccccc3)C(=O)C2(c2ccccc2)C(c2ccc(C)cc2)=C1c1ccc(C)cc1 (centres unmarked) [MMV007695] | 179 | 96 | EC50 (P. falciparum 3D7 [1]; source GNF (GNF-Pf id)): 2460 nM |
| CCCCc1c(CCC)c(=N)c2ccccc2n1C [MMV007764] | 716 | 77 | EC50 (P. falciparum 3D7 [1]; [3]): 311 nM |
| CCOc1ccccc1NC(=O)CN1CCN(C(=O)c2ccco2)CC1 [MMV007791] | – | 83 | EC50 (P. falciparum 3D7 [1]; [4]): 5460 nM |
| COc1nc(Nc2ccc(C(C)C)cc2)nc(OC)n1 [MMV007808] | 1140 | 88 | EC50 (P. falciparum 3D7 [1]; [4]): 677 nM |
| COc1ccc2c(c1)OC(O)(C(F)(F)C(F)(F)F)CC2=O (centres unmarked) [MMV007839] | 283 | – | EC50 (P. falciparum 3D7 [1]; source GNF (GNF-Pf id)): 442 nM |
| CCCCN(CCCC)S(=O)(=O)c1ccc(NC(=O)c2ccco2)cc1 [MMV007881] | – | 78 | EC50 (P. falciparum 3D7 [1]; [4]): 1420 nM |
| CCCCOc1ccc(C(=O)Nc2cc(C)on2)cc1 [MMV007906] | – | 73 | EC50 (P. falciparum 3D7 [1]; [4]): 3160 nM |
| Cc1ccc(Nc2nc(-c3ccccn3)cs2)cc1 [MMV007907] | 350 | 79 | EC50 (P. falciparum 3D7 [1]; source GNF): 407 nM |
| CCOc1ccc(CCNC(=O)c2cccs2)cc1OCC [MMV007978] | – | 95 | EC50 (P. falciparum 3D7 [1]; [4]): 890 nM |
| CN1CCN(c2c3c(c(C#N)c4nc5ccccc5n24)CCC3)CC1 [MMV008127] | 4000 | – | EC50 (P. falciparum 3D7 [1]; [4]): 1180 nM; inhibition of growth at 2 µM (P. falciparum 3D7 [2]): 42% |
| O=C(O)C1Cc2c([nH]c3ccccc23)C(c2ccc(Cl)cc2Cl)N1 (centres unmarked) [MMV008138] | 350 | – | EC50 (P. falciparum 3D7 [1]; source GNF (GNF-Pf id)): 1020 nM; EC50 (P. falciparum 3D7 [1]; source GSK (TCMDC id)): 954 nM |
| Cc1c(C)n(Cc2ccc(F)cc2)c2ccc(C(=O)NCc3ccco3)cc12 [MMV008149] | – | 52 | EC50 (P. falciparum 3D7 [1]; source GNF): 78.2 nM |
| CN1C=C(c2ccc3ccccc3n2)C(c2c[nH]c3ccccc23)c2ccccc21 (centres unmarked) [MMV008160] | 552 | 95 | EC50 (P. falciparum 3D7 [1]; [3]): 1140 nM |
| COc1cc(OC)cc(N2C(=O)N(Cc3ccc(C(C)(C)C)cc3)c3ccccc3S2(=O)=O)c1 [MMV008173] | 1430 | 97 | EC50 (P. falciparum 3D7 [1]; source GNF (GNF-Pf ids)): 3750 nM |
| COc1ccc2nc(C)cc(Nc3cccc(O)c3)c2c1 [MMV008212] | 969 | 98 | EC50 (P. falciparum 3D7 [1]; [4]): 228 nM |
| Oc1c2c(nc3cc(-c4ccccc4)nn13)CCCC2 [MMV008270] | – | 77 | EC50 (P. falciparum 3D7 [1]; [4]): 1930 nM |
| CCOC(=O)c1cnc2c(C)cc(C)cc2c1Nc1ccc(OC)c(OC)c1 [MMV008294] | 232 | 96 | EC50 (P. falciparum 3D7 [1]; source GNF (GNF-Pf id)): 1780 nM |
| CCCc1c(CC)c(=N)c2ccccc2n1C [MMV008416] | 242 | 69 | EC50 (P. falciparum 3D7 [1]; source GNF (GNF-Pf id)): 762 nM |
